Laboratory results published in patent US9839614B2, “Nanoparticle and polymer formulations for thyroid hormone analogs, antagonists, and formulations and uses thereof” (NANOPHARMACEUTICALS LLC, priority 2009, dated 2017).
Several values for one entry are separate records, joined by “and”; a condition that tells them apart may be missing. Equal values may be shown once.

Tests used:
[1] = system: ECV304 endothelial cells; test: FGF2 release from ECV304 endothelial cells (ELISA); type: cell-based; conditions: T3 0.01 μmol/L, 3 days
Procedure: ECV304 endothelial cells were cultured in M199 medium supplemented with 10% fetal bovine serum. […] After 72 hours, the supernatants were harvested and assays for FGF performed without dilution using a commercial ELISA system (R&D Systems) (See Davis et al., Circ Res 94:1500-1506 (2004)).

[2] = system: chick chorioallantoic membrane (CAM) blood vessel branching; test: Chorioallantoic membrane (CAM) model of angiogenesis; type: in vivo; conditions: for ANGIOGENESIS INDEX: n = 8 per group; for effect on angiogenesis, representative illustrations (FIG. 23): in vivo
Procedure: In vivo neovascularization was examined by methods described previously. 9-12 Ten-day-old chick embryos were purchased from SPAFAS (Preston, Conn.) and incubated at 37° C. with 55% relative humidity. A hypodermic needle was used to make a small hole in the shell concealing the air sac, and a second hole was made on the broad side of the egg, directly over an avascular portion of the embryonic membrane that was identified by candling. A false air sac was created beneath the second hole by the application of negative pressure at the first hole, causing the CAM to separate from the shell. A window approximately 1.0 cm^2 was cut in the shell over the dropped CAM with a small-crafts grinding wheel (Dremel, division of Emerson Electric Co.), allowing direct access to the underlying CAM. […] Sterile disks of No. 1 filter paper (Whatman International) were pretreated with 3 mg/mL cortisone acetate and 1 mmol/L PTU and air dried under sterile conditions. Thyroid hormone, hormone analogs, FGF2 or control solvents, and inhibitors were then applied to the disks and the disks allowed to dry. The disks were then suspended in PBS and placed on growing CAMs. […] At 24 hours, the MAPK cascade inhibitor PD 98059 was also added to CAMs topically by means of the filter disks.
After incubation at 37° C. with 55% relative humidity for 3 days, the CAM tissue directly beneath each filter disk was resected from control and treated CAM samples. Tissues were washed 3× with PBS, placed in 35-mm Petri dishes (Nalge Nunc), and examined under an SV6 stereomicroscope (Zeiss) at X50 magnification. Digital images of CAM sections exposed to filters were collected using a 3-charge-coupled device color video camera system (Toshiba) and analyzed with Image-Pro software (Media Cybernetics). The number of vessel branch points contained in a circular region equal to the area of each filter disk were counted. One image was counted in each CAM preparation, and findings from 8 to 10 CAM preparations were analyzed for each treatment condition (thyroid hormone or analogs, FGF2, FGF2 antibody, PD 98059). In addition, each experiment was performed 3 times. The resulting angiogenesis index is the mean±SEM of new branch points.

[3] = system: matrigel plug angiogenesis; test: Mouse matrigel model of angiogenesis (plug hemoglobin); type: in vivo, mice (C57BL/6NCr)
Procedure: Normal male mice (C57BL/6NCr) 6-8 weeks of age and weighing ˜20 g were purchased from Taconic farm. Animals were housed 4 per cage, in controlled conditions of temperature (20-24° C.); humidity (60-70%) and 12 hrs. light/dark cycle provided with food and water ad libitum. […] Aliquots of matrigel were placed into cold polypropylene tubes to prevent the matrigel from solidifying and the angiogenesis promoter added to matrigel with or without agonist. Mice were treated daily. Matrigel was subcutaneously injected as triple injection per animal at 100 μL/animal. At day 14 post plug implant all animals were killed in CO2 chamber and matrigel plugs were collected. Plug hemoglobin content was analyzed from three implants/mice (n=6 per group) to measure angiogenesis.
The matrigel plugs dissected from the mice were carefully stripped of any remaining peritoneum. The plugs were placed into 0.5 mL tube of ddH2O and homogenized for 5-10 min. […] Absorbance was read with a Microplate Manager ELISA reader at 540 nm. […] Hemoglobin concentration is a reflection of the number of blood vessels in the plugs.

[4] = 10 μg/matrigel plug, day 14, n = 6-7
[5] = T4 + antagonist, each 10 μg/matrigel plug
[6] = FGF (1.25 μg/ml) + Tetrac or analog at 10 μg/plug
[7] = FGF (1.25 μg/ml) + Tetrac or analog at 10 μg/plug, n = 8
[8] = FGF 100 ng + Tetrac or analog 10 μg/plug
[9] = FGF 100 ng + Tetrac or analog 10 μg/plug, n = 7-14

`CC(C)[Si](OC(=O)Cc1cc(I)c(Oc2cc(I)c(OCC3CO3)c(I)c2)c(I)c1)(C(C)C)C(C)C` (centres unmarked) showed a melting point of 120 °C.
In the case of `CC(C)[Si](OC(=O)C(Cc1cc(I)c(Oc2cc(I)c(OCC3CO3)c(I)c2)c(I)c1)NC(=O)OC(C)(C)C)(C(C)C)C(C)C` (centres unmarked) (hydrate or solvate), the melting point is reported as 109 °C.
`CC(C)(C)OC(=O)NC(Cc1cc(I)c(Oc2cc(I)c(OCC3CO3)c(I)c2)c(I)c1)C(=O)OCC1CO1` (centres unmarked) (hydrate or solvate) [T4 analog 14, Oxiran-2-ylmethyl-2-(tert-butoxycarbonylamino)-3-(4-(3,5-diiodo-4-(oxiran-2-ylmethoxy)phenoxy)-3,5-diiodophenyl)propanoate] gave a melting point of 105 °C.
With `N[C@@H](Cc1cc(I)c(Oc2ccc(O)c(I)c2)c(I)c1)C(=O)O` [Compound T3, 3,5,3′-triiodo-L-thyronine] the “FGF2 (pg/mL/10^6 cells)” value [1] was 98.8 ± 0.5 pg/mL/10^6 cells and the “generation of new blood vessels from existing vessels promoted” value ([2]; 10^−7-10^−9M) was “two-to three-fold”.
For `O=C(O)CCc1cc(I)c(Oc2ccc(O)cc2)c(I)c1` [DITPA, 3,5-diiodothyropropionic acid], the “ANGIOGENESIS INDEX” value ([2]; 0.01 uM) was 133.0 ± 11.6, the “ANGIOGENESIS INDEX” value ([2]; 0.1 uM) was 167.3 ± 12.7 and the “ANGIOGENESIS INDEX” value ([2]; 0.2 mM) was 117.9 ± 5.6.
In the case of `Cc1cc(OCC(=O)O)cc(C)c1Cc1ccc(O)c(C(C)C)c1` [GC-1, 3,5-dimethyl-4-(4′-hydroxy-3′-isopropylbenzyl)-phenoxy acetic acid], the “ANGIOGENESIS INDEX” value ([2]; 0.01 uM) is reported as 169.6 ± 11.6 and the “ANGIOGENESIS INDEX” value ([2]; 0.1 uM) is reported as 152.7 ± 9.0.
With `O=C(O)C(Cc1cc(I)c(Oc2cc(I)c(O)c(I)c2)c(I)c1)NC(c1ccccc1)(c1ccccc1)c1ccccc1` (centres unmarked) [PRIAB2] the “Branch pts ± SEM” value ([2]; 0.1 μM) was 136.0 ± 18.1.
For `CNC(Cc1cc(I)c(Oc2cc(I)c(O)c(I)c2)c(I)c1)C(=O)O` (centres unmarked) [PRIAB6], the “Branch pts ± SEM” value ([2]; 0.1 μM) was 136.2 ± 12.4.
In the case of `CCNC(Cc1cc(I)c(Oc2cc(I)c(O)c(I)c2)c(I)c1)C(=O)O` (centres unmarked) [PRIAB12], the “Branch pts ± SEM” value ([2]; 0.1 μM) is reported as 121.7 ± 13.6.
For `CC(C)(C)OC(=O)NC(Cc1cc(I)c(Oc2cc(I)c(O)c(I)c2)c(I)c1)C(=O)O` (centres unmarked) [T4 analog 7, 2-[(Tert-butoxycarbonyl)amino]-3-[4-(4-hydroxy-3,5-diiodophenoxy)-3,5-diiodophenyl]propanoic acid], the “Branch pts ± SEM” value ([2]; 0.1 μM, before conjugation) was 173 ± 9.9.
With `CNC(Cc1cc(I)c(Oc2cc(I)c(O)c(I)c2)c(I)c1)C(=O)[O-].O.O.[K+]` (centres unmarked) [T4 analog 10, Potassium 3-[4-(4-hydroxy-3,5-diiodophenoxy)-3,5-diiodophenyl]-2-(methylamino)propanoate dihydrate] the “Hemoglobin (mg/mL) ± SEM” value [3, 4] was 0.8 ± 0.2 mg/mL, the “Mean stimulation of angiogenesis (%)” value ([3]; 10 μg/matrigel plug, dihydrate) was 87% and 87 ± 33% and the “Mean % of stimulation (comparing to PBS)” value ([2]; 0.1 μM) was 43.8 ± 6.5%. For the same molecule, the “Mean Branch points” value ([2]; 0.1 μM, mean ± SEM, n = 8) was 105 ± 7.
For `CCNC(Cc1cc(I)c(Oc2cc(I)c(O)c(I)c2)c(I)c1)C(=O)O` (centres unmarked) [T4 analog 11, 2-(Ethylamino)-3-[4-(4-hydroxy-3,5-diiodophenoxy)-3,5-diiodophenyl]propanoic acid], the “effect on angiogenesis, representative illustrations (FIG. 23)” value [2] was “proangiogenesis effects”.
With `CCNC(Cc1cc(I)c(Oc2cc(I)c(O)c(I)c2)c(I)c1)C(=O)OCC` (centres unmarked) [T4 analog 12, Ethyl-2-(ethylamino)-3-[4-(4-hydroxy-3,5-diiodophenoxy)-3,5-diiodophenyl]propanoate] the “Hemoglobin (mg/mL) ± SEM” value [3, 5] was 0.4 ± 0.1 mg/mL, the “Mean inhibition of angiogenesis (%)” value [3, 5] was 89 ± 11% and the “Mean Branch points” value ([2]; FGF (1.25 μg/ml) + 12 (0.1 μM)) was 46 ± 2. For the same molecule, the “Mean % of stimulation (comparing to PBS)” value ([2]; FGF (1.25 μg/ml) + 12 (0.1 μM), (inhibition)) was −37.9 ± 4 (inhibition) % and the “effect on angiogenesis, representative illustrations (FIG. 23)” value [2] was “anti-angiogenic”.
For `CC(C)[Si](OC(=O)C(Cc1cc(I)c(Oc2cc(I)c(O)c(I)c2)c(I)c1)NC(=O)OC(C)(C)C)(C(C)C)C(C)C` (centres unmarked) [T4 analog 13, Triisopropylsilyl-2-(tert-butoxycarbonylamino)-3-(4-(4-hydroxy-3,5-diiodophenoxy)-3,5-diiodophenyl)propanoate], the “Mean stimulation of angiogenesis (%)” value ([3]; 10 μg/matrigel plug) was 0 ± 17%, the “Hemoglobin (mg/mL) ± SEM” value [3, 4] was 0.3 ± 0.1 mg/mL and the “Mean Branch points” value ([2]; 1 μM, mean ± SEM, n = 8) was 76 ± 7. The “Mean % Inhibition” value [2, 6] was 44 ± 13%, the “Mean Branch points” value [2, 7] was 105 ± 7 and the change in vivo at 1 µM ([2]; Gallus gallus, topical, 1 μM, read-out: Mean % of stimulation (comparing to PBS)) was 4.1 ± 6.5%.
With `CC(C)(C)OC(=O)NC(Cc1cc(I)c(Oc2cc(I)c(OCC3CO3)c(I)c2)c(I)c1)C(=O)OCC1CO1` (centres unmarked) [T4 analog 14, Oxiran-2-ylmethyl-2-(tert-butoxycarbonylamino)-3-(4-(3,5-diiodo-4-(oxiran-2-ylmethoxy)phenoxy)-3,5-diiodophenyl)propanoate] the “Mean stimulation of angiogenesis (%)” value ([3]; 10 μg/matrigel plug) was 0 ± 17%, the “Hemoglobin (mg/mL) ± SEM” value [3, 4] was 0.3 ± 0.1 mg/mL and the “Mean % of stimulation (comparing to PBS)” value ([2]; 1 μM) was 56.2 ± 7.5%. For the same molecule, the “Mean Branch points” value ([2]; 1 μM, mean ± SEM, n = 8) was 114 ± 11.
For `CC(C)(C)OC(=O)Cc1cc(I)c(Oc2cc(I)c(O)c(I)c2)c(I)c1` [Tetrac analog 3, tert-Butyl-2-(4-(4-hydroxy-3,5-diiodophenoxy)-3,5-diiodophenyl)acetate], the “Mean inhibition of angiogenesis (%)” value [3, 8] was 95 ± 14%.
For `O=C(Cc1cc(I)c(Oc2cc(I)c(O)c(I)c2)c(I)c1)NC1CCCCC1` [Tetrac analog 4, N-cyclohexyl-2-(4-(4-hydroxy-3,5-diiodophenoxy)-3,5-diiodophenyl)acetamide], the “Mean inhibition of angiogenesis (%)” value [3, 8] was 104 ± 12%, the “Hemoglobin (mg/mL) ± SEM” value [3, 9] was 0.2 ± 0.1 mg/mL and the “Mean % Inhibition” value [2, 6] was 15 ± 8%. The “Mean Branch points” value [2, 7] was 121 ± 4.
In the case of `CC(C)[Si](OC(=O)Cc1cc(I)c(Oc2cc(I)c(O)c(I)c2)c(I)c1)(C(C)C)C(C)C` [Tetrac analog 5, Triisopropylsilyl-2-(4-(4-hydroxy-3,5-diiodophenoxy)-3,5-diiodophenyl)acetate], the “Mean inhibition of angiogenesis (%)” value [3, 8] is reported as 104 ± 14%, the “Hemoglobin (mg/mL) ± SEM” value [3, 9] is reported as 0.2 ± 0.1 mg/mL and the “Mean % Inhibition” value [2, 6] is reported as 75 ± 19%. For the same molecule, the “Mean Branch points” value [2, 7] was 87 ± 11 and the melting point was 146 °C.
In the case of `O=C(Cc1cc(I)c(Oc2cc(I)c(OCC3CO3)c(I)c2)c(I)c1)NC1CCCCC1` (centres unmarked) [Tetrac analog 6, N-cyclohexyl-2-(4-(3,5-diiodo-4-(oxiran-2-ylmethoxy)phenoxy)-3,5-diiodophenyl)acetamide], the “Mean inhibition of angiogenesis (%)” value [3, 8] is reported as 80 ± 16%, the “Hemoglobin (mg/mL) ± SEM” value [3, 9] is reported as 0.7 ± 0.1 mg/mL and the melting point is reported as 242 °C.
In the case of `O=C(Cc1cc(I)c(Oc2cc(I)c(OCC3CO3)c(I)c2)c(I)c1)OCC1CO1` (centres unmarked) [Tetrac analog 8, Oxiran-2-ylmethyl-2-(4-(3,5-diiodo-4-(oxiran-2-ylmethoxy)phenoxy)-3,5-diiodophenyl)acetate], the melting point is reported as 116 °C.
`O=C(Cc1cc(I)c(Oc2cc(I)c(OCCCl)c(I)c2)c(I)c1)NC1CCCCC1` [Tetrac analog 15, 2-(4-(4-(2-chloroethoxy)-3,5-diiodophenoxy)-3,5-diiodophenyl)-N-cyclohexylacetamide] showed a melting point of 263 °C.
In the case of “FGF2: human recombinant FGF2, standard proangiogenic agent”, the “Hemoglobin (mg/mL) ± SEM” value ([3]; FGF 100 ng alone) is reported as 2.4 ± 0.4 mg/mL, the “ANGIOGENESIS INDEX” value ([2]; 1 uM) is reported as 155 ± 9 and the “Branch pts ± SEM” value ([2]; 1.25 μg/ml) is reported as 137.9 ± 7.5. For the same molecule, the “Mean % of stimulation (comparing to PBS)” value ([2]; FGF 1.25 μg/mL) was 78.1 ± 7.5%, the “Mean Branch points” value ([2]; FGF 1.25 μg/mL) was 130 ± 11 and the “increase in angiogenesis / branch formation” value ([2]; FGF2 (1 μg/mL)) was 2.2 fold and 2 fold. For the same molecule, the “Mean Branch points” value ([2]; FGF (1.25 μg/ml) alone) was 130 ± 11.
